Assays:
[1] = tested on: bilateral 6-hydroxydopamine (6OHDA) lesion of the substantia nigra; assay: Bilateral 6OHDA lesion of the substantia nigra, behavioral assessment; assay type: in vivo, Male rats; settings: 6OHDA rats, once daily 7 days sc; 10 mg/kg (estradiol 100 μg/kg)
Protocol: (§1) Male rats received baseline assessment of weight, motor function (spontaneous locomotor behavior, rotorod performance) and sensorimotor gating (prepulse inhibition). Subjects were assigned to treatment conditions to equalize performance on all these measures. Subjects were then treated once daily for 7 days with either sesame oil vehicle, estradiol (100 μg/kg sc), Comparative substance 131 (10 mg/kg sc), Compound 8 (10 mg/kg sc), Comparative substance 623 (10 mg/kg sc) or Comparative substance 957 (10 mg/kg sc). On the second day of treatment, subjects received bilateral sham or 6OHDA lesions (8 μg in 4 μl) of the substantia nigra (A/P−5.0 mm, M/L±1.6 mm, D/V−8.2 mm) following the atlas of Paxinos and Watson (Paxinos, G., Watson, C., The Rat Brain in Stereotaxic Coordinates, Fourth Edition, New York: Academic Press, Spiral Bound, 1998). Behavioral assessments of motor function (spontaneous locomotion, rotorod and traversing a challenging beam), cognition (novel object recognition) and sensorimotor gating (prepulse inhibition) began after the final day of treatment. Following behavioral assessment, SN and striatal tissue were collected in order to determine the intactness of the nigrostriatal dopamine system.

[2] = biological target: T1, ERβ (Homo sapiens, UniProt Q92731); assay: R-SAT functional assay, ERβ; assay type: cell-based; design: expressed in transfected cells; host or cells: transient transfection; settings: NIH3T3; NIH-3T3 cells; read-out: R-SAT Erβ % Eff
T1 sequence (Q92731 whole entry, species assumed): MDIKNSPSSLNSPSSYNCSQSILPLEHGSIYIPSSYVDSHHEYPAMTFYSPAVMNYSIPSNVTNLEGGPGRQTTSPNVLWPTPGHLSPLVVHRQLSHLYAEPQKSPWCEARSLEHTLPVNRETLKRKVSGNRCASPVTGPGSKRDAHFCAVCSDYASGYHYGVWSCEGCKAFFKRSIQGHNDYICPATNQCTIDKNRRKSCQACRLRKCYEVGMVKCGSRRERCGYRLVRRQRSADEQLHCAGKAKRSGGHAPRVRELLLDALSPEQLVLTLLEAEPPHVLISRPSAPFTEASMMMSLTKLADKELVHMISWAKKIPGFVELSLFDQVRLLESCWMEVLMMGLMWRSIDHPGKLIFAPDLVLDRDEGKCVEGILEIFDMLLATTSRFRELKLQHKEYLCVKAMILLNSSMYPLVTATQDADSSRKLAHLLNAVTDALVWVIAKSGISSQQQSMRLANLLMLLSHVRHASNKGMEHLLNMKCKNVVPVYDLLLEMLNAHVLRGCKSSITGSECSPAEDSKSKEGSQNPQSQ
Source text: (§2) R-SAT® (Receptor Selection and Amplification Technology) is a cell-based functional assay that allows one to monitor receptor-dependent proliferative responses and has been described elsewhere. […] This process is achieved by partial cellular transformation via loss of contact inhibition and growth factor dependency. Monitoring is achieved by transfecting the cells with a β-galactosidase reporter gene vector whose expression is under a constitutively active promoter. Briefly, NIH-3T3 fibroblasts were plated overnight in 96-wells plates in DMEM 10% calf serum (Hyclone) and grown to 60-70% confluency prior to transfection. Transient transfections were performed using Polyfect (Qiagen) according to manufacturer's instructions. Typically a transfection mix would consist of the receptor and the β-galactosidase expression vectors. Sixteen hours post-transfection, cells were incubated with different doses of ligand in DMEM containing 30% Ultraculture (Hyclone) and 0.4% calf serum (Hyclone) to generate a dose response curve. […] Plates were read using a microplate reader at 420 nm. Data from R-SAT® assays were fit to the equation: r=A+B(x/(x+c)), where A=minimum response, B=maximum response minus minimum response, c=EC50, r=response, and x=concentration of ligand. Curves were generated using the curve fitting softwares Excel Fit and GraphPad Prism (San Diego, Calif.). Luciferase Reporter Gene Assay

[3] = biological target: T1, ERβ; assay: Competitive 3H-estradiol binding assay, ERβ; design: expressed in transfected cells; host or cells: HEK293 cells, transient transfection
Protocol: (§3) Cells were then harvested by scraping in ice-cold PBS and subsequently lysed using a cold buffer containing 10 mM Tris pH 7.4, 1 mM EDTA, 1 mM DTT before being subjected to polytron twice for 10 seconds. Cytosolic extracts were isolated by centrifugation at 15000 g for 30 minutes at 4° C. Competitive binding of the test compounds or the estradiol control was performed on 20 μL extract by overnight incubation at 4° C. in a total volume of 100 μL containing 1 nM ^3H-estradiol (Perkin Elmer, Boston, Mass.). The bound fraction was separated from the unbound one by the addition of 100 μL of Dextran coated charcoal, incubated for 10 minutes and subsequent centrifugation at 1000 rpm for 10 minutes. Samples (100 μL per sample) were then analyzed by liquid scintillation. Data was then analyzed using the curve fitting software GraphPad Prism.

[4] = tested on: nigrostriatal dopamine neurons; assay: Tyrosine hydroxylase immunofluorescence in SN and STR after 6OHDA lesion; assay type: in vivo, Male rats; settings: 6OHDA rats, once daily 7 days sc; 10 mg/kg (estradiol 100 μg/kg)
Protocol: as §1
Comparative compound 131 and Compound 8 were compared with estradiol for their ability to protect nigrostriatal dopamine neurons as measured by tyrosine hydroxylase (TH) immunohistochemistry in the SN and striatum (STR).

[5] = biological target: T2, ERα (Homo sapiens, UniProt P03372); assay: Luciferase reporter gene assay (3*ERE) in HEK293 cells, ERα; assay type: cell-based; design: expressed in transfected cells; host or cells: transient transfection; settings: 48 hours
T2 sequence (P03372 1-595): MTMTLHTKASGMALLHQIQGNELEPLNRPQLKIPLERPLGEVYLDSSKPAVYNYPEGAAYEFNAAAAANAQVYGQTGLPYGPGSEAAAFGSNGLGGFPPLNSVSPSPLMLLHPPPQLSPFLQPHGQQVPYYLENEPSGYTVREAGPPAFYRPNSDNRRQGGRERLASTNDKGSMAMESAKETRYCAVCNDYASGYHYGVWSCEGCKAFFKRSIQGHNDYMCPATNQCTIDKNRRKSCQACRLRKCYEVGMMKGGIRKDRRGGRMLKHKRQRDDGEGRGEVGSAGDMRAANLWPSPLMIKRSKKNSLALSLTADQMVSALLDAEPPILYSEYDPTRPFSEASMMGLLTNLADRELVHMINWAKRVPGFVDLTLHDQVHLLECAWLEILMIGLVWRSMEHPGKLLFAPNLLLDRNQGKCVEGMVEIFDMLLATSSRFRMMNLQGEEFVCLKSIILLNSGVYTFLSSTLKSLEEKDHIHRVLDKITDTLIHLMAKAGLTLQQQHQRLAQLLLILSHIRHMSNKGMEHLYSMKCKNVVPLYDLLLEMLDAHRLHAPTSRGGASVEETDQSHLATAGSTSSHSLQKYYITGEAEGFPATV
Protocol: (§4) HEK293 cells were grown to 70% confluency in DMEM containing 10% calf serum (Hyclone) prior to transfection. On the day of transfection (day 1), expression vectors for ERα or ERβ were cotransfected along a construct containing a synthetic 3*ERE upstream of the luciferase gene (Panomics), using Polyfect (Qiagen) per manufacturer's recommendations (ERE being estrogen response element). Sixteen hours post-transfection, cells were incubated in serum free DMEM. […] Cells extracts were then obtained by lyzing and the Luciferase activity measured, all of these steps performed using a commercially available kit (Promega).

[6] = biological target: T1, ERβ; assay: Luciferase reporter gene assay (3*ERE) in HEK293 cells, ERβ; assay type: cell-based; design: expressed in transfected cells; host or cells: HEK293 cells, transient transfection
Protocol: as §4

[7] = biological target: T2, ERα; assay: Competitive 3H-estradiol binding assay, ERα; settings: 1 nM 3H-estradiol, HEK293T cytosolic extract; read-out: Binding ERα pKi (converted)
Protocol: as §3, with “HEK293T cells were transiently transfected for 48 hours with expression vectors encoding ERα or ERβ, before being serum starved for 4-6 hours. Cells” for “Cells”

[8] = Microsomal bioavailability (Table 2); assay type: in vitro ADME; settings: read-out: Microsomal bioavailability F (%)
[9] = biological target: T2, ERα; assay: R-SAT functional assay, ERα; assay type: cell-based; design: expressed in transfected cells; host or cells: NIH-3T3 fibroblasts, transient transfection; settings: NIH-3T3 cells
Source text: as §2

[10] = biological target: T1, ERβ; assay: R-SAT functional assay, ERβ; assay type: cell-based; design: expressed in transfected cells; host or cells: transient transfection

## Oc1ccc(C2(c3ccccc3)CCCCC2)cc1 [Compound 131]
[1]
  motor performance (spontaneous locomotor activity, rotorod, challenging beam): prevented the impairment
  novel object recognition (cognition): showed improved memory
  prepulse inhibition (sensorimotor gating): prevented the 6OHDA-induced deficit in PPI
[2]
  Emax: 71%
[3]
  Ki: 50.1 nM
[4]
  percent immunopositive and mean pixel intensity of TH immunofluorescence in the STR: increase in percentage of the image that was immunopositive and increased mean pixel intensity
  percent immunopositive, mean cell size and mean pixel intensity of TH immunofluorescence in the SN: improved percent immunopositive, mean cell size and mean pixel intensity
  tyrosine hydroxylase positive cell number in the SN: prevented the reduction in cell number
[5]
  Luciferase Erα % Eff: 29%
[5]; na = not active, read-out: Luciferase Erα pEC50 (converted)
  EC50: 15800 nM
[6]
  EC50: 20 nM
[6]; HEK293 cells, 48 hours, read-out: Luciferase Erβ % Eff
  Emax: 80%
[7]
  Ki: 1000 nM
[8]
  Microsomal bioavailability (predicted from microsomes): 0%
[9]
  R-SAT Erα % Eff: 42%
[10]
  EC50: 31.6 nM
